Where two headings read alike, the source gives them in different places.
Columns and labels:
[1] = biological target: T1, GDP loaded biotinylated KRas^G12C protein (Homo sapiens, UniProt P01116, G12C); assay: KRasG12C mass spectrometry adducting assay; format: binding; details: test compound final concentration 10 μM, 4 μM KRasG12C, react for 4 hours
T1 construct: biotin (biotinylated); made in house
Method: KRasG12C Mass Spectrometry Adducting Assay
Enzyme solutions were prepared in assay buffer containing 20 mM HEPES (pH 7.5), 5 mM MgCl2, and 150 mM NaCl. […] The plate was sealed before reading on a Xevo G2 QTOF (Waters) and Acquity LC system (Waters). […] Blank samples were run in between each test sample.
Data was analysed in Mass Lynx software (Waters), the Total ion count (TIC) trace was used and the eluted protein peak data combined. Using the combined spectrum the data was deconvoluted using MaxEnt1 method. The peak area for apo-protein KRas^G12C (APO) and KRAS+relative cmpd mass (adduct) were measured, and a percentage adduct was calculated using the following calculation:
Percent adduct=100*(area of adduct peak/(sum of APO+adduct peaks)

[2] = biological target: T1, GDP loaded biotinylated KRas^G12C protein; assay: KRasG12C functional assay; format: biochemical; details: HTRF FRET readout of SOS-mediated nucleotide exchange and GST-Raf RBD binding, samples incubated for 4 hrs
Method: KRasG12C Functional Assay
All enzyme and substrate solutions were prepared in assay buffer containing 20 mM HEPES (pH 7.5), 5 mM MgCl2, 150 mM NaCl, and 0.01% Tween 20. […] In a separate mix 20 nM GST-Raf Ras binding domain (GST-Raf RBD, purified in house) and 4 μg/ml anti-GST XL665 antibody (Cisbio) was prepared in assay buffer containing 50 mM Potassium Fluoride and 0.05 mg/ml BSA and equilibrated for 4 hours before adding 0.6 μM Guanosine 5′-[γ-thio]triphosphate (GTPγS, Sigma) and 0.08 μM SOS (purified in house). 5 μl of the GST-RAF RBD mix was then dispensed into each well of the assay plate. […] This is detected simultaneously via the specific binding interaction between active GTPγS KRas^G12C with GST-Raf RBD which brings the europium and XL665 into close proximity enabling an increased FRET signal to be detected on a Pherastar (BMG) plate reader equipped with the HTRF filter module. […] IC50 values were calculated from normalised dose-response response FRET data curve fitted in Genedata screener (Basel, Switzerland).

[3] = read-out: KRasG12C functional assay IC50 value
[4] = KRasG12C functional assay IC50 value (μM)

T1 sequence (P01116 1-188 isoform P01116-2 G12C): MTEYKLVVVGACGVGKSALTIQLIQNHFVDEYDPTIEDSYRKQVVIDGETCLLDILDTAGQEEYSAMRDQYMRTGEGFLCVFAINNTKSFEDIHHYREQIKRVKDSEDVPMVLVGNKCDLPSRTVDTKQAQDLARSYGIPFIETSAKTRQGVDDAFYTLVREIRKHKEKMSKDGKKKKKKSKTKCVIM

SMILES | KRasG12C M.S. Binding Mean adduct % [1] [%] | IC50 [2, 3] [µM] | IC50 [2, 4] [µM]
C=CC(=O)N1CCN2c3ncnc4c(F)c(-c5c(O)cccc5F)c(Cl)c(c34)OC[C@@H]2C1 [Example 69, 1-((8aS)-6-chloro-4-fluoro-5-(2-fluoro-6-hydroxyphenyl)-8a,9,11,12-tetrahydro-pyrazino[2′,1′:3,4][1,4]oxazepino[5,6,7-de]quinazolin-10 (8H)-yl)prop-2-en-1-one] | – | 0.029 | –
C=CC(=O)N1CCN2c3nc(N4CC(N(C)C)C4)nc4cc(-c5c(C)ccc6[nH]ncc56)c(Cl)c(c34)OC[C@@H]2C1 [Example 75, 1-((8aS)-6-chloro-2-(3-(dimethylamino)azetidin-1-yl)-5-(5-methyl-1H-indazol-4-yl)-8a,9,11,12-tetrahydropyrazino[2′,1′:3,4][1,4]oxazepino[5,6,7-de]quinazolin-10 (8H)-yl)prop-2-en-1-one] | 57 | 0.019 | –
C=CC(=O)N1CCN2c3ncnc4cc(-c5ccccc5Cl)c(Cl)c(c34)OC[C@@H]2C1 [Example 42, 1-[(8aS)-6-Chloro-5-(2-chlorophenyl)-8a,9,11,12-tetrahydropyrazino[2′,1′:3,4][1,4]oxazepino[5,6,7-de]quinazolin-10(8H)-yl]prop-2-en-1-one] | 100 | 0.247 | –
C=CC(=O)N1CCN2c3ncnc4cc(-c5cccc6[nH]ncc56)c(Cl)c(c34)OC[C@@H]2C1 [Example 61, 1-[(8aS)-6-Chloro-5-(1H-indazol-4-yl)-8a,9,11,12-tetrahydropyrazino[2′,1′:3,4][1,4]oxazepino[5,6,7-de]quinazolin-10(8H)-yl]prop-2-en-1-one] | 64 | 2.22 | –
Cc1ccc2[nH]ncc2c1-c1cc2ncnc3c2c(c1Cl)OC[C@@H]1CN(C(=O)/C=C/CN(C)C)CCN31 [Example 4, (E)-1-((8aS)-6-Chloro-5-(5-methyl-1H-indazol-4-yl)-8a,9,11,12-tetrahydropyrazino[2′,1′:3,4][1,4]oxazepino[5,6,7-de]quinazolin-10 (8H)-yl)-4-(dimethylamino)but-2-en-1-one] | 74 | 0.518 | –
C=CC(=O)N1CCN2c3nc(N4CC(N(C)C)C4)nc4cc(-c5c(C)ccc6[nH]ncc56)c(Cl)c(c34)OC[C@@H]2C1 (single isomer, unassigned) [Example 77] | 100 | 0.021 | –
C=CC(=O)N1CCN2c3ncnc4cc(-c5c(C)ccc6[nH]ncc56)c(Cl)c(c34)OC[C@H]2C1 [Example 7, 1-[(8aR)-6-Chloro-5-(5-methyl-1H-indazol-4-yl)-8a,9,11,12-tetrahydropyrazino-[2′,1′:3,4][1,4]oxazepino[5,6,7-de]quinazolin-10 (8H)-yl]prop-2-en-1-one] | 95 | – | 0.214
C=CC(=O)N1CCN2c3ncnc4cc(-c5c(C)ccc6[nH]ncc56)cc(c34)OC[C@H]2C1 [Example 6, 1-[(8aR)-5-(5-Methyl-1H-indazol-4-yl)-8a,9,11,12-tetrahydropyrazino[2′,1′:3,4]-[1,4]oxazepino[5,6,7-de]quinazolin-10 (8H)-yl]prop-2-en-1-one] | 68 | 2.37 | –
C=CC(=O)N1CCN2c3ncnc4cc(-c5c(C)ccc6[nH]ncc56)c(Cl)c(c34)OC[C@@H]2C1 [Example 1, 1-[(8aS)-6-Chloro-5-(5-methyl-1H-indazol-4-yl)-8a,9,11,12-tetrahydropyrazino-[2′,1′:3,4][1,4]oxazepino[5,6,7-de]quinazolin-10 (8H)-yl]-2-propen-1-one] | 95 | – | 0.102
C=CC(=O)N1CCN2c3nc(NC4CCN(C5CC5)CC4)nc4cc(-c5c(C)ccc6[nH]ncc56)c(Cl)c(c34)OC[C@@H]2C1 (single isomer, unassigned) [Example 73] | 8 | 1.9 | –

Continued, in another order:

KRasG12C M.S. Binding Mean adduct % [1] [%] | IC50 [2, 3] [µM] | SMILES | IC50 [2, 4] [µM]
49 | 2.73 | C=CC(=O)N1CCN2c3ncnc4cc(-c5cccc6c(C)n(C)nc56)c(Cl)c(c34)OC[C@@H]2C1 [Example 37, 1-[(8aS)-6-Chloro-5-(2,3-dimethyl-2H-indazol-7-yl)-8a,9,11,12-tetrahydropyrazino[2′,1′:3,4][1,4]oxazepino[5,6,7-de]quinazolin-10(8H)-yl]prop-2-en-1-one] | –
8 | 3.47 | C=CC(=O)N1CCN2c3ncnc4cc(-c5cccc6c5CN(C)CC6)c(Cl)c(c34)OC[C@@H]2C1 [Example 34, 1-[(8aS)-6-Chloro-5-(2-methyl-1,2,3,4-tetrahydroisoquinolin-8-yl)-8a,9,11,12-tetrahydropyrazino[2′,1′:3,4][1,4]oxazepino[5,6,7-de]quinazolin-10(8H)-yl]prop-2-en-1-one] | –
12 | 22.7 | C=CC(=O)N1CCN2c3ncnc4cc(-c5c(O)cccc5Cl)c(Cl)c(c34)OC[C@@H]2C1 (single isomer, unassigned) [Example 15] | –
71 | 2.06 | C=CC(=O)N1CCN2c3ncnc4cc(-c5cccc(F)c5OC)c(Cl)c(c34)OC[C@@H]2C1 [Example 26, 1-[(8aS)-6-Chloro-5-(3-fluoro-2-methoxyphenyl)-8a,9,11,12-tetrahydropyrazino[2′,1′:3,4][1,4]oxazepino[5,6,7-de]quinazolin-10(8H)-yl]prop-2-en-1-one] | –
27 | 4.41 | C=CC(=O)N1CCN2c3ncnc4cc(-c5cccc6c5OCCOC6)c(Cl)c(c34)OC[C@@H]2C1 [Example 24, 1-[(8aS)-6-Chloro-5-(2,3-dihydro-5H-1,4-benzodioxepin-9-yl)-8a,9,11,12-tetrahydropyrazino[2′,1′:3,4][1,4]oxazepino[5,6,7-de]quinazolin-10(8H)-yl]prop-2-en-1-one] | –
75 | 1.57 | C=CC(=O)N1CCN2c3ncnc4cc(-c5ccc(F)cc5C)c(Cl)c(c34)OC[C@@H]2C1 [Example 64, 1-[(8aS)-6-Chloro-5-(4-fluoro-2-methylphenyl)-8a,9,11,12-tetrahydropyrazino[2′,1′:3,4][1,4]oxazepino[5,6,7-de]quinazolin-10(8H)-yl]prop-2-en-1-one] | –
28 | 7.53 | C=CC(=O)N1CCN2c3ncnc4cc(-c5ccccc5CC(N)=O)c(Cl)c(c34)OC[C@@H]2C1 [Example 49, 2-{2-[(8aS)-10-Acryloyl-6-chloro-8,8a,9,10,11,12-hexahydropyrazino[2′,1′:3,4][1,4]oxazepino[5,6,7-de]quinazolin-5-yl]phenyl}acetamide] | –
100 | 0.032 | C=CC(=O)N1CCN2c3ncnc4cc(-c5c(O)cccc5Cl)c(Cl)c(c34)OC[C@@H]2C1 (single isomer, unassigned) [Example 16] | –
51 | 3.62 | C=CC(=O)N1CCN2c3ncnc4cc(-c5cccc6ccc(=O)n(C)c56)c(Cl)c(c34)OC[C@@H]2C1 [Example 44, 8-[(8aS)-10-Acryloyl-6-chloro-8,8a,9,10,11,12-hexahydropyrazino[2′,1′:3,4][1,4]oxazepino[5,6,7-de]quinazolin-5-yl]-1-methylquinolin-2(1H)-one] | –
100 | 0.191 | C=CC(=O)N1CCN2c3ncnc4cc(-c5c(O)cccc5C#N)c(Cl)c(c34)OC[C@@H]2C1 (single isomer, unassigned) [Example 20] | –
84 | 1.45 | C=CC(=O)N1CCN2c3ncnc4cc(-c5ccc(F)cc5F)c(Cl)c(c34)OC[C@@H]2C1 [Example 66, 1-[(8aS)-6-Chloro-5-(2,4-difluorophenyl)-8a,9,11,12-tetrahydropyrazino[2′,1′:3,4][1,4]oxazepino[5,6,7-de]quinazolin-10(8H)-yl]prop-2-en-1-one] | –
100 | 0.956 | C=CC(=O)N1CCN2c3ncnc4cc(-c5ccc(F)cc5Cl)c(Cl)c(c34)OC[C@@H]2C1 [Example 50, 1-[(8aS)-6-Chloro-5-(2-chloro-4-fluorophenyl)-8a,9,11,12-tetrahydropyrazino[2′,1′:3,4][1,4]oxazepino[5,6,7-de]quinazolin-10(8H)-yl]prop-2-en-1-one] | –
100 | 0.437 | C=CC(=O)N1CCN2c3ncnc4cc(-c5ccccc5F)c(Cl)c(c34)OC[C@@H]2C1 [Example 60, 1-[(8aS)-6-Chloro-5-(2-fluorophenyl)-8a,9,11,12-tetrahydropyrazino[2′,1′:3,4][1,4]oxazepino[5,6,7-de]quinazolin-10(8H)-yl]prop-2-en-1-one] | –

From patent publication US20220127281A1, “HETEROARYL COMPOUNDS THAT INHIBIT G12C MUTANT RAS PROTEINS” (AstraZeneca AB, priority 2017, published 2022)
